Numbering of substitutions follows the chain as printed. Read-outs that look alike come from different tables or passages of the source.

The source of these data is patent publication US9650616B2, “Methods for increasing grain yield” (University of Florida Research Foundation, Inc., priority 2014, dated 2017).

Experiment [1] deals with T1, maize endosperm AGPase, wild type (Bt2/Sh2) (Zea mays, UniProt P55241+Q84PF5).
T1 sequence (P55241 46-516): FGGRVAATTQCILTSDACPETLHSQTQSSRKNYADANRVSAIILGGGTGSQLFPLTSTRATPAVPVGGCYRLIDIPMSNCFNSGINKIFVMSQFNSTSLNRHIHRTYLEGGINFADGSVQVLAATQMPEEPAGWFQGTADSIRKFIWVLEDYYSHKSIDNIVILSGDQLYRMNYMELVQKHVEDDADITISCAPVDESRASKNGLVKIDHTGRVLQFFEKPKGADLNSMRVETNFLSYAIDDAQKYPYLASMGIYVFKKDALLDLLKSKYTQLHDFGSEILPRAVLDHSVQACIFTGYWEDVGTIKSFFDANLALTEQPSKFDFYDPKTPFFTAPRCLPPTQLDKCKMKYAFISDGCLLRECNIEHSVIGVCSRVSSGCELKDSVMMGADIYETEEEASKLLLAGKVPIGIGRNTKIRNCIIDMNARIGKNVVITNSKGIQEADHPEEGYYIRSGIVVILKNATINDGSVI
T1 sequence (Q84PF5 1-474): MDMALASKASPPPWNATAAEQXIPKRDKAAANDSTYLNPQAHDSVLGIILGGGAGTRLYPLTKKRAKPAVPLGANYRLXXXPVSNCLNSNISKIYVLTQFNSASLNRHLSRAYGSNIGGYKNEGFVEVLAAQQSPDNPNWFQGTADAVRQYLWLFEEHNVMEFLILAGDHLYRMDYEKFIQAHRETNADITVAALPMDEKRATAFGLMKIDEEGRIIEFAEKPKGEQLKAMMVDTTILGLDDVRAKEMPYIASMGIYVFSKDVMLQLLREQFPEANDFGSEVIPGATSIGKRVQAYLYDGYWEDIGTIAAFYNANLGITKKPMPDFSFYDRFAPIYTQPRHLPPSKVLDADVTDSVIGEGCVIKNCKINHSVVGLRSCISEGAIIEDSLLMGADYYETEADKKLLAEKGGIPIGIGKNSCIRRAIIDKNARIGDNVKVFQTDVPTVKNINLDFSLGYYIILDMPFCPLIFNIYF
Kind of experiment: Apparent kinetic constants with 3-PGA, 37° C., wild type. To be noted: read-out: ATP Km, Wt. The format is biochemical.

For experiment [2], the target named is T2, maize endosperm AGPase, large subunit variant D161G (numbering of SEQ ID NO: 20) (Zea mays, UniProt P55241+Q84PF5, D161G).
T2 sequence (P55241 46-516 D161G): T1 sequence (P55241 46-516) with D116G
T2 sequence (Q84PF5 1-474): T1 sequence (Q84PF5 1-474)
In words: Apparent kinetic constants with 3-PGA, 37° C., D161G. It counts as biochemical. An excerpt: The small and large subunit plasmids of maize endosperm AGPase (pMONcBt2 and pMONcSh2, respectively) (Giroux et al., 1996) were expressed in E. coli AC70R1-504 cells (Iglesias et al., 1993) as previously described (Boehlein et al., 2008).
An endpoint assay was used to determine the rate of the AGPase reaction by coupling the formation of PPi to a decrease in NADH concentration (Boehlein et al., 2008). […] The Michaelis constants (Km) were obtained by varying one substrate in the presence of saturating concentrations of the second substrate. The activation constants were obtained by varying the activator at fixed levels of both substrates. All reactions were performed at 37° C. and mixes were prewarmed before starting the reaction with enzyme. […] The absorbance at 340 nm was monitored after 30 min and the amount of PPi produced was determined from a standard curve using PPi in complete reaction mixtures lacking AGPase. Blank samples contained complete reaction mixtures without enzyme and the change in absorbance between the blank and the reaction was used to calculate the amount of PPi produced. […]
The apparent Michaelis constant and maximum velocity of each reaction was calculated from a V vs. S plots using nonlinear regression analysis and the following equation, v=VmaxS/(Km+S), where v is the measured velocity, Vmax is the maximum velocity, S is the substrate concentration. […]

As a reminder, the Km is the concentration of substrate that gives half-maximal velocity. For `Nc1ncnc2c1ncn2[C@@H]1O[C@H](COP(=O)(O)OP(=O)(O)OP(=O)(O)O)[C@@H](O)[C@H]1O` [ATP], the Km stood at 69 µM in experiment [1]; 44 µM in experiment [2] (read-out: ATP Km, with 3-PGA, 37° C.); 40 µM in experiment [2] (read-out: Km for ATP, in the presence of 3-PGA).
